Laboratory results from patent publication US4837342A, “Prostacyclin analogue, and blood circulation improving agent and anti-ulcer composition containing it as active ingredient” (Sagami Chemical Research Center, priority 1986, dated 1989).

Tests used:
[1] = system: Blood platelet (ADP agglutination); test: Blood platelet agglutination inhibiting activity (ADP-induced), washed rabbit platelet suspension; type: cell-based, rabbit (Japanese white male rabbits); conditions: Oryctolagus cuniculus, Platelet; ADP 10 μM; concentration suppressing agglutination to 50%; read-out: Platelet agglutination inhibiting activity ED50, ADP agglutination
Method: Blood platelet aggutination inhibiting activity
Japanese white male rabbits having a weight of from 2.0 to 2.5 kg were used.
Under anesthesia with sodium Pentobarbital, blood was sampled from the carotid artery, and mixed with a 1/7 volume of an anticoagulant citric acid dextrose solution. Then, the mixture was subjected to centrifugal separation at 140×g for 15 minutes, whereupon the supernatant (platelet rich plasma:PRP) was obtained. PRP was subjected to centrifugal separation at 1,300×g for 7 minutes. The blood platelet pellets thus obtained were washed with a HEPES buffer solution (pH 6.5) for washing blood platelets, and subjected to centrifugal separation at 1,300×g for 7 minutes. The blood platelet pellets washed twice under such condition, were suspended in a suspending liquid (a buffer solution for washing blood platelets, which contains 0.1% of human fibrinogen, 1.8 mM of CaCl2 and 1.2 mM of MgCl2) to obtain a blood platelet suspension having a concentration of from 5×10^8 to 8×10^8 platelets/ml.
The platelet agglutination ability was measured by means of an agglutination meter. To 380 μl of the platelet suspension, 10 μl of a test compound or a solvent as the control, was added. Three minutes later, 10 μl of a platelet agglutinating substance (10 μM of ADP or 1 μg/ml of collagen, as the final concentration) was added thereto to induce agglutination.
The blood platelet agglutination inhibiting activity of each test compound was represented by ED50 (i.e. the concentration of the test compound where the platelet agglutination is suppressed to 50%).

diastolic blood pressure [2] = test: Hypotensive activity, anesthetized dog; type: in vivo, crossbred adult dog; conditions: Canis lupus familiaris, iv, read-out: Hypotensive activity ED50 (dose reducing diastolic blood pressure by 50 mmHg); heading: Hypotensive activity ED50; dog; femoral vein; Table 1
Method: A male or female crossbred adult dog having a weight of from 9 to 14 kg was anesthetized by intraveous administration of sodium Pentobarbital. Then, the left carotid was exposed under artificial respiration, and the blood pressure was measured by using an electric blood pressure meter. […]

Ethanol ulcer = Ethanol ulcer inhibiting activity; type: in vivo, Male wister rats; conditions: rat; oral administration of 30 μg/kg
Method: Ethanol ulcer inhibiting activity
Male wister rats having a weight of from 170 to 270 g were put into individual cages and starved for 24 hours. During this starvation period, the rats were allowed to drink water freely. A test compound or PGE2 as a comparative compound was orally administered in an amount of 3, 10 or 30 μg/kg, and 30 minutes later, 1 ml of 99.5% ethanol was orally administered to each rat. One hour after the ethanol administration, each rat was filled by cervical vertebral luxation, and the stomach was taken out. A 1% formaline solution was injected into the stomach in an amount of about 8 ml, and the stomach was fixed in the formaline solution for 30 minutes. After the fixing, the stomach was severed along the greater curvature, and the mucous membrane surface of the stomach was gently washed with flowing water. Then, the total length of damages appearing on the gastric glandular portion was obtained and used as the ulcer index.
The ethanol ulcer inhibiting activity of a test compound was represented by ED50 (i.e. the dose of the test compound at which the ulcer was inhibited by 50% relative to the ulcer index of the non-treated group). To the non-treated group, the solvent was administered.

Hydrochloric acid ulcer = Hydrochloric acid ulcer inhibiting activity; type: in vivo, wister rats; conditions: rat; oral administration of 30 μg/kg
Method: Hydrochloric acid ulcer inhibiting activity
Male wister […] having a weight of from 190 to 240 g were used. The rats were starved in the same manner as in Test Example 6, and the test compounds and PGE2 were, respectively, orally administered in an amount of 30 μg/kg, and 30 minutes later, 1 ml of 0.6N hydrochloric acid was orally administered. Thirty minutes after the hydrochloric acid administration, each rat was killed by cervical vertebral luxation. Then, the stomach was taken out and fixed, and the ulcer index was obtained, in the same manner as in Test Example 6. The hydrochloric acid ulcer inhibiting activity of a test compound was represented by the inhibiting percentage (i.e. the percentage of the ulcer index of the treated group to the ulcer index of the non-treated group). To the non-treated group, the solvent was administered.

diastolic blood pressure [3] = conditions: background statement; cited from earlier work
[4] = background; cited from earlier work

For `CCCCC[C@H](O)/C=C/[C@@H]1[C@H]2C/C(=C/CCCC(=O)O)O[C@H]2C[C@H]1O` [Prostacyclin, (5Z,13E)-(9α,11α,15S)-6,9-epoxy-11,15-dihydroxyprosta-5,13-diene acid], the IC50 [1] was 2.9 nM, the ED (50 mmHg) (diastolic blood pressure [2]) was 0.24 µg/kg and the “Ethanol ulcer inhibition (in words)” value (Ethanol ulcer) was “No inhibiting activity”. For the same compound, the “Hydrochloric acid ulcer inhibition (in words)” value (Hydrochloric acid ulcer) was “No inhibiting activity”, the “Hypotensive activity of prostacyclin (in words)” value (diastolic blood pressure [3]) was “remarkable hypotensive activities” and the “Chemical stability (in words)” value [4] was “very unstable”.
